Results from PubChem BioAssay AID766 (NMMLSC, 2007).

molecular target: N-formyl peptide receptor 2 (Homo sapiens) (UniProt P25090); assay: human FPR2 ligand displacement potency – cell-based, flow cytometry, Ki from IC50, dose response (AID 766); conditions: FPRL1-expressing cells, fluorescent ligand binding competition, binding constant from IC50
Sequence (P25090 whole entry, looked up): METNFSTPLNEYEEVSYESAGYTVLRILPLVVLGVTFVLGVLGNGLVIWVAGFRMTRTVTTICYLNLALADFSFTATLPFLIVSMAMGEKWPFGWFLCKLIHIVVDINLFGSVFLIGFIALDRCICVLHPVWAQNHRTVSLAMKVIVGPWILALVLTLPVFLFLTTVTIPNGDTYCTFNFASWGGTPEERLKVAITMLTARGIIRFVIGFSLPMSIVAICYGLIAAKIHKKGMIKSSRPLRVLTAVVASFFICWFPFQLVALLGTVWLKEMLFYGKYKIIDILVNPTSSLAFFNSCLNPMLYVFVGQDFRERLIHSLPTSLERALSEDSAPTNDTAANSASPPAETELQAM

Row | Compound | Ki
1 | COc1ccc(-c2cn3cccnc3n2)cc1NC(=O)C1CCCC1 | > 39.9 µM
2 | COc1ccc(-c2cc(C(F)(F)F)nc(N3CCN(c4ccccc4)CC3)n2)cc1OC | > 30.2 µM
3 | CCC(=O)Nc1cc(-c2cn3cccnc3n2)ccc1OC | 6.5 µM
4 | COc1ccc(-c2cc(C(F)(F)F)nc(N3CCN(Cc4ccccc4)CC3)n2)cc1OC | 10 µM
5 | O=C(N1CCN(c2nc(-c3ccccc3)c3ccccc3n2)CC1)C(F)(F)F | > 34.7 µM
6 | COc1ccc(-c2cc(C(F)(F)F)nc(N3CCN(C(c4ccccc4)c4ccccc4)CC3)n2)cc1OC | > 25.1 µM
7 | CCOC(=O)N1CCN(c2nc(-c3ccc(OC)c(OC)c3)cc(C(F)(F)F)n2)CC1 | > 30.5 µM
8 | COc1ccc(CC(=O)Nc2cc(-c3cn4cccnc4n3)ccc2OC)cc1 | 6 µM
9 | COc1ccc(-c2cn3cccnc3n2)cc1NC(=O)C(C)C | 2.2 µM
10 | COc1ccc(-c2cn3cccnc3n2)cc1NC(=O)C1CC1 | 4.1 µM
